In the Bradley open melting point set (2014):
“And” between values parts separate entries of the source, which are not always exact repeats. Equal values may be shown once.

Structure (SMILES) | melting point
C[C@H]1CCCC[C@@H]1C (relative stereo) [trans-1,2-dimethylcyclohexane] | -88 °C
C[C@H]1CCC[C@@H]1C (relative stereo) [trans-1,2-dimethylcyclopentane] | -118 °C
C[C@@H]1C[C@H]1C (relative stereo) [trans-1,2-dimethylcyclopropane] | -150 °C
CCC[C@H]1CCC[C@@H]1C (relative stereo) [trans-1-methyl-2-propylcyclopentane] | -123 °C
CC1(C)C[C@@H](C(=O)O)[C@@H]1N (relative stereo) [trans-2-Amino-3,3-dimethylcyclobutane-1-carboxylic acid] | 155 °C
C[C@H]1CCCC[C@@H]1O (relative stereo) [trans-2-methylcyclohexanol] | -21 °C
NC(CO)Cc1ccccc1 (single isomer, unassigned; (-)) [(-)-2-amino-3-phenyl-1-propanol] | 92 °C
C#CC1(O)CC[C@H]2[C@@H]3CCc4cc(O)ccc4[C@H]3CC[C@@]21C (stereo in doubt) [(17beta)-17-Ethynylestra-1(10),2,4-triene-3,17-diol] | 144 °C
CC(N)C(=O)O (stereo in doubt) [D-Alanine] | 292 °C
NC(CCC(=O)O)C(=O)O (stereo in doubt) [D-Glutamic Acid] | 201 °C
c1ccc(C(c2ccccc2)c2ccccc2)cc1 [1,1',1''-Methanetriyltribenzene] | 94 °C
C(#Cc1ccccc1)c1ccccc1 [1,1'-Ethyne-1,2-diyldibenzene] | 60 °C
Oc1ccc2ccccc2c1-c1c(O)ccc2ccccc12 [1,1'-bi(2-naphthol)] | 217 °C
OB(O)c1cc(-c2ccccc2)cc(-c2ccccc2)c1 [1,1':3',1''-terphenyl-5'-boronic acid] | 294 °C
c1ccc(-c2ccc(-c3ccccc3)cc2)cc1 [1,1':4',1''-Terphenyl] | 213 °C
ClCC(Cl)(Cl)Cl [1,1,1,2-Tetrachloroethane] | -70 °C
ClCC(Cl)(Cl)Cl [1,1,1,2-tetrachloroethane] | -70 °C
OC(C(F)(F)F)C(F)(F)F [1,1,1,3,3,3-hexafluoro-2-propanol] | -3 °C
BrC(Br)C(Br)Br [1,1,2,2-Tetrabromoethane] | 0 °C
ClC(Cl)C(Cl)Cl [1,1,2,2-Tetrachloroethane] | -43 °C
BrC(Br)C(Br)Br [1,1,2,2-tetrabromoethane] | 0 °C
O=C(O)C1(C(=O)O)CC1 [1,1-cyclopropanedicarboxylic acid] | 132 °C
CC1(C)CCCCC1 [1,1-dimethylcyclohexane] | -33 °C

Structure (SMILES) | melting point
C=C(c1ccccc1)c1ccccc1 [1,1-diphenylethene] | 8 °C
CCC(c1ccccc1)c1ccccc1 [1,1-diphenylpropane] | 14 °C
c1ccc2c(c1)CCCC2 [1,2,3,4-Tetrahydronaphthalene] | -31 °C
c1ccc2c(c1)CCCC2 [1,2,3,4-tetrahydronaphthalene(tetralin)] | -35 °C
c1ccc2c(c1)CCCN2 [1,2,3,4-tetrahydroquinoline] | 14 °C
Clc1cc(Cl)c(Cl)c(Cl)c1 [1,2,3,5-Tetrachlorobenzene] | 51.5 °C
ClCC(Cl)CCl [1,2,3-trichloropropane] | -14 °C
Clc1cc(Cl)c(Cl)cc1Cl [1,2,4,5-tetrachlorobenzene] | 139 °C (2×) and 140 °C
Cc1cc(C)c(C)cc1C [1,2,4,5-tetramethylbenzene] | 79 °C
Brc1ccc(Br)c(Br)c1 [1,2,4-Tribromobenzene] | 44 °C
C[C@@H](Cl)CCl [1,2-Dichloro-Propane] | -100 °C
O=C1c2ccccc2C(=O)c2c1ccc(O)c2O [1,2-Dihydroxy-9,10-anthraquinone] | 281 °C
c1ccc(CCc2ccccc2)cc1 [1,2-Diphenylethane] | 51.5 °C
OC[C@@H](O)[C@H]1O[C@@H]2O[C@H](C(Cl)(Cl)Cl)O[C@@H]2[C@H]1O [1,2-O-[(1R)-2,2,2-Trichloroethylidene]-alpha-D-glucofuranose] | 187 °C
Sc1ccccc1S [1,2-benzenedithiol] | 23 °C
O=C(CCC(=O)c1ccccc1)c1ccccc1 [1,2-dibenzoylethane] | 146 °C
CCC(Br)CBr (configuration not stated) [1,2-dibromobutane] | -65 °C
Clc1cccc(I)c1Cl [1,2-dichloro-3-iodobenzene] | 35 °C
O=[N+]([O-])c1ccc(Cl)c(Cl)c1 [1,2-dichloro-4-nitrobenzene] | 41 °C
ClCCCl [1,2-dichloroethane] | -35 °C
c1ccc(CCc2ccccc2)cc1 [1,2-diphenylethane] | 51.5 °C and 52 °C
CC(Cc1ccccc1)c1ccccc1 (configuration not stated) [1,2-diphenylpropane] | 0 °C
C(=C/P(=O)(O)O)P(=O)(O)O [1,2-ethylenediphosphonic acid] | 219 °C

Structure (SMILES) | melting point
CC(O)CO (configuration not stated) [1,2-propanediol] [listing 1 of 2 here] | -60 °C
CC(O)CO (configuration not stated) [1,2-propanediol] [listing 2 of 2 here] | -60 °C
C=C1N(C)c2ccccc2C1(C)C [1,3,3-trimethyl-2-methyleneindoline] | -10 °C
C1=CC=CC=CC=C1 [1,3,5,7-cyclooctatetraene] | -27 °C
C=CCn1c(=O)n(CC=C)c(=O)n(CC=C)c1=O [1,3,5-Triallyl-1,3,5-triazinane-2,4,6-trione] | 24 °C
O=[N+]([O-])c1c(Cl)cc(Cl)cc1Cl [1,3,5-Trichloro-2-nitrobenzene] | 72 °C
O=C(O)c1cc(C(=O)O)cc(C(=O)O)c1 [1,3,5-benzenetricarboxylic acid] | 375 °C
O=C(c1ccccc1)c1cc(C(=O)c2ccccc2)cc(C(=O)c2ccccc2)c1 [1,3,5-tribenzoylbenzene] | 118 °C
Brc1cc(Br)cc(Br)c1 [1,3,5-tribromobenzene] [listing 1 of 2 here] | 124 °C (2×) and 122 °C
Brc1cc(Br)cc(Br)c1 [1,3,5-tribromobenzene] [listing 2 of 2 here] | 123 °C
Clc1cc(Cl)cc(Cl)c1 [1,3,5-trichlorobenzene] | 65 °C (2×) and 64 °C
Cc1nn(C)c(C)c1C=O [1,3,5-trimethyl-1h-pyrazole-4-carboxaldehyde] | 82 °C
BrCCCBr [1,3-Dibromopropane] | -34 °C
CC1(C)C(=O)N(Cl)C(=O)N1Cl [1,3-Dichloro-5,5-dimethylimidazolidine-2,4-dione] | 135 °C
O=C(Nc1ccccc1)Nc1ccccc1 [1,3-Diphenylurea] | 238 °C
O=C(Oc1cccc(OC(=O)c2ccccc2)c1)c1ccccc1 [1,3-dibenzoyloxybenzene] | 118 °C
Brc1cccc(Br)c1 [1,3-dibromobenzene] | -7 °C
BrCCCBr [1,3-dibromopropane] | -34 °C
Clc1cc(Cl)cc(I)c1 [1,3-dichloro-5-iodobenzene] | 57 °C
CC(C)c1cccc(C(C)C)c1 [1,3-diisopropylbenzene] | -63 °C
CCc1c(C)cccc1C [1,3-dimethyl-2-ethylbenzene] | -16 °C
